Results taken from ChEMBL document CHEMBL3751841, “Synthesis of carboxyimidamide-substituted benzo[c][1,2,5]oxadiazoles and their analogs, and evaluation of biological activity against Leishmania donovani” (Medchemcomm, 2015).

How the values were obtained:
Leishmania donovani [1] = assay: Antileishmanial activity against Leishmania donovani MHOM/SD/1962/1S-Cl2d axenic amastigotes assessed as inhibition of parasite growth at 50 uM after 24 hrs by alamar blue staining based fluorescent viability microplate assay; format: functional; conditions: read-out: GI
Leishmania donovani [2] = assay: Antileishmanial activity against Leishmania donovani MHOM/SD/1962/1S-Cl2d axenic amastigotes assessed as inhibition of parasite growth at 15 uM after 24 hrs by alamar blue staining based fluorescent viability microplate assay; format: functional; conditions: read-out: GI
Leishmania donovani [3] = assay: Antileishmanial activity against Leishmania donovani MHOM/SD/1962/1S-Cl2d axenic amastigotes assessed as inhibition of parasite growth at 5 uM after 24 hrs by alamar blue staining based fluorescent viability microplate assay; format: functional; conditions: read-out: GI
Leishmania donovani [4] = assay: Antileishmanial activity against Leishmania donovani MHOM/SD/1962/1S-Cl2d axenic amastigotes assessed as inhibition of parasite growth after 24 hrs by alamar blue staining based fluorescent viability microplate assay; format: functional, organism-based
Leishmania donovani [5] = assay: Antileishmanial activity against luciferase expressing Leishmania donovani intracellular amastigotes infected in human THP1 cells assessed as inhibition of parasite growth after 48 hrs by Bright-glo luciferase assay; format: functional, organism-based; conditions: THP-1, 48 h
[6] = Cytotoxicity against human THP1 cells assessed as reduction in cell viability after 48 hrs by alamar blue dye based assay; conditions: THP-1, 48 h
[7] = Cytotoxicity against mouse NIH/3T3 cells assessed as reduction in cell viability after 48 hrs by alamar blue dye based assay; conditions: NIH3T3, 48 h
[8] = Selectivity index, ratio of EC50 for human THP1 cells to EC50 for Leishmania donovani axenic amastigotes; format: toxicity, cell-based, THP-1; conditions: THP1 cells versus Leishmania donovani axenic amastigotes, read-out: Ratio EC50
[9] = Selectivity index, ratio of EC50 for mouse NIH/3T3 cells to EC50 for Leishmania donovani […] amastigotes; format: toxicity, cell-based; conditions: read-out: Ratio EC50
Leishmania donovani [10] = assay: Antileishmanial activity against luciferase expressing Leishmania donovani intracellular amastigotes infected in human THP1 cells assessed as inhibition of parasite growth at 5 uM after 48 hrs by Bright-glo luciferase assay; format: functional; conditions: THP-1, 48 h, read-out: GI
Leishmania donovani [11] = assay: Antileishmanial activity against Leishmania donovani MHOM/SD/1962/1S-Cl2d axenic amastigotes assessed as inhibition of parasite growth at 1 uM after 24 hrs by alamar blue staining based fluorescent viability microplate assay; format: functional; conditions: read-out: GI
Leishmania donovani [12] = assay: Antileishmanial activity against luciferase expressing Leishmania donovani intracellular amastigotes infected in human THP1 cells assessed as inhibition of parasite growth at 1 uM after 48 hrs by Bright-glo luciferase assay; format: functional; conditions: THP-1, 48 h, read-out: GI

Structure (SMILES) | inhibition of growth at 50 µM (Leishmania donovani [1]) [%] | inhibition of growth at 15 µM (Leishmania donovani [2]) [%] | further results
N=C(NOC(=O)Nc1cccc(Cl)c1)c1ccc2nonc2c1 | 94.8 | 87.2 | inhibition of growth at 5 µM (Leishmania donovani [3]): 43.4%; EC50 (Leishmania donovani [4]): 4.2 µM; EC50 (Leishmania donovani [5]): 5.92 µM; EC50 [6]: 79.9 µM; EC50 [7]: > 300 µM; selectivity ratio [8]: 19; selectivity ratio [9]: > 71.4; inhibition of growth at 5 µM (Leishmania donovani [10]): 33.1%
N=C(NOC(=O)Nc1ccccc1)c1ccc2nonc2c1 | 70.1 | 24.2 | 
Cc1ccc(NC(=O)O/N=C(\N)c2ccc3nonc3c2)cc1 | 64.1 |  | 
N/C(=N\OC(=O)Nc1ccccc1)c1ccc2[nH]ccc2c1 | 91.9 | 21.6 | 
N/C(=N\OC(=O)Nc1ccccc1)c1ccc2ccccc2c1 | 98.8 | 24.9 | 
N/C(=N\OC(=O)Nc1ccccc1)c1ccc2occc2c1 | 95.2 | 48 | 
N/C(=N\OC(=O)Cc1ccccc1)c1ccc2nonc2c1 | 22.4 |  | 
N/C(=N\OC(=O)NC1CCCCC1)c1ccc2nonc2c1 | 43.9 |  | 
COc1cccc(NC(=O)O/N=C(\N)c2ccc3nonc3c2)c1 | 71.4 | 31.8 | 
Cc1cccc(NC(=O)O/N=C(\N)c2ccc3nonc3c2)c1 | 67.2 | 44.6 | 
N/C(=N\OC(=O)Nc1ccc(Cl)cc1)c1ccc2nonc2c1 | 44 |  | 
N/C(=N\OC(=O)Oc1ccccc1)c1ccc2nonc2c1 | 26.5 |  | 
Cc1ccccc1NC(=O)O/N=C(\N)c1ccc2nonc2c1 | 42 |  | 
N/C(=N\OC(=O)c1ccccc1)c1ccc2nonc2c1 | 51.1 |  | 
N/C(=N\OC(=O)Nc1cccc(C(F)(F)F)c1)c1ccc2nonc2c1 | 51.4 |  | 
N/C(=N\OC(=O)Nc1ccccc1)c1ccc2[nH]cnc2c1 | 72 |  | 
N/C(=N\OC(=O)Nc1ccccc1Cl)c1ccc2nonc2c1 | 29.6 |  | 
N/C(=N\OC(=O)Nc1ccccc1)c1ccc2c(c1)OCO2 | 93 | 33.9 | 
COc1ccccc1NC(=O)O/N=C(\N)c1ccc2nonc2c1 | 38 |  | 
N/C(=N\OC(=O)Nc1ccc(C(F)(F)F)cc1)c1ccc2nonc2c1 | 51.7 |  | 
N/C(=N\OC(=O)Nc1ccccc1)c1ccccc1 | 78.4 | 5.4 | 
N/C(=N\OC(=O)Nc1ccccc1C(F)(F)F)c1ccc2nonc2c1 | 42.1 |  | 
O=C(Nc1ccccc1)ONC(=O)c1ccc2nonc2c1 | 96.2 | 68.2 | inhibition of growth at 5 µM (Leishmania donovani [3]): 54.6%; EC50 (Leishmania donovani [4]): 8.1 µM; EC50 [6]: 33.7 µM; EC50 [7]: > 300 µM; selectivity ratio [8]: 4.2; selectivity ratio [9]: > 37; inhibition of growth at 5 µM (Leishmania donovani [10]): 19.9%
COc1ccc(NC(=O)O/N=C(\N)c2ccc3nonc3c2)cc1 | 46 |  | 
N/C(=N\OC(=O)Nc1ccccc1)c1ccc2sccc2c1 | 97.9 | 35.2 | 
C[C@@H]1[C@H](O)[C@@H](C)/C=C/C=C/C=C/C=C/C=C/C=C/C=C/[C@H](O[C@@H]2O[C@H](C)[C@@H](O)[C@H](N)[C@@H]2O)C[C@@H]2O[C@](O)(C[C@@H](O)C[C@@H](O)[C@H](O)CC[C@@H](O)C[C@@H](O)CC(=O)O[C@H]1C)C[C@H](O)[C@H]2C(=O)O [AMPHOTERICIN B] |  |  | EC50 (Leishmania donovani [5]): 0.11 µM; EC50 [6]: 2.1 µM; EC50 [7]: 2.2 µM; inhibition of growth at 1 µM (Leishmania donovani [11]): 99.7%; inhibition of growth at 1 µM (Leishmania donovani [12]): > 90%
